Experimental data reported in ChEMBL document CHEMBL1201862, “PubChem BioAssay data set” (2004).
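Cultured in 96-well plates, cells were exposed to test compound for 48 hours across five concentrations. Here, GI50 denotes the concentration required for 50% inhibition of growth.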 Calls of active or inactive are those of the source. Rule as the data show it: active = GI50 up to about 1.1 µM and inactive = higher.

Columns and labels:
Assay in all cases: NCI anticancer screen, dose series, 48 h
[1] = test system: TK-10
[2] = test system: A498
[3] = test system: T47D
[4] = test system: MOLT-4
[5] = test system: NCI-H23
[6] = test system: 786-0
[7] = test system: MDA-MB-231
[8] = test system: EKVX
[9] = test system: SF-295
[10] = test system: SF-268
[11] = test system: HCC 2998
[12] = test system: OVCAR-5
[13] = test system: HCT-116
[14] = test system: NCI-H460
[15] = test system: UACC-257
[16] = test system: U-251
[17] = test system: OVCAR-8
[18] = test system: Malme-3M
[19] = test system: UO-31
[20] = test system: UACC-62
[21] = test system: MCF7
[22] = test system: SW-620
[23] = test system: NCI/ADR-RES
[24] = test system: MDA-MB-435
[25] = test system: RXF 393
[26] = test system: IGROV-1
[27] = test system: SK-MEL-28
[28] = test system: OVCAR-3
[29] = test system: RPMI-8226
[30] = test system: SNB-19
[31] = test system: A549
[32] = test system: NCI-H522
[33] = test system: ACHN
[34] = test system: LOX IMVI
[35] = test system: DU-145
[36] = test system: BT-549
[37] = test system: CCRF-CEM
[38] = test system: MDA-N
[39] = test system: NCI-H226
[40] = test system: SNB-75
[41] = test system: OVCAR-4
[42] = test system: HT-29
[43] = test system: KM12
[44] = test system: SF-539
[45] = test system: HOP-62
[46] = test system: K562
[47] = test system: PC-3
[48] = test system: M14
[49] = test system: SK-MEL-5
[50] = test system: Hs-578T
[51] = test system: HL-60
[52] = test system: SR
[53] = test system: SN12C
[54] = test system: HCT-15
[55] = test system: SK-OV-3
[56] = test system: HOP-92
[57] = test system: SK-MEL-2
[58] = test system: COLO 205
[59] = test system: CAKI-1

In the case of `N#CCOc1ccc(/C=C/C(=O)c2ccc(Cl)cc2)cc1`, the GI50 [1] was 28.5 µM (inactive), the GI50 [2] was 20.8 µM (inactive) and the GI50 [3] was 19.9 µM (inactive). For the same molecule, the GI50 [4] was 19.6 µM (inactive), the GI50 [5] was 24.8 µM (inactive) and the GI50 [6] was 22.6 µM (inactive). For the same molecule, the GI50 [7] was 25.4 µM (inactive), the GI50 [8] was 39.6 µM (inactive) and the GI50 [9] was 21.4 µM (inactive). For the same molecule, the GI50 [10] was 33.9 µM (inactive), the GI50 [11] was 31.7 µM (inactive) and the GI50 [12] was > 100 µM (inactive). For the same molecule, the GI50 [13] was 6.65 µM (inactive), the GI50 [14] was 27.2 µM (inactive) and the GI50 [15] was 32 µM (inactive). For the same molecule, the GI50 [16] was 25.8 µM (inactive), the GI50 [17] was 32.1 µM (inactive) and the GI50 [18] was 28 µM (inactive). The GI50 [19] was 32.8 µM (inactive), the GI50 [20] was 19 µM (inactive) and the GI50 [21] was 11.4 µM (inactive). For the same molecule, the GI50 [22] was 22.1 µM (inactive), the GI50 [23] was 23.9 µM (inactive) and the GI50 [24] was 28.8 µM (inactive). The GI50 [25] was 17.5 µM (inactive), the GI50 [26] was 22 µM (inactive) and the GI50 [27] was 33.7 µM (inactive). For the same molecule, the GI50 [28] was 31.8 µM (inactive), the GI50 [29] was 23.1 µM (inactive) and the GI50 [30] was 22.8 µM (inactive). The GI50 [31] was 39.7 µM (inactive), the GI50 [32] was > 10 µM (inactive) and the GI50 [33] was 34.8 µM (inactive). For the same molecule, the GI50 [34] was 15.6 µM (inactive), the GI50 [35] was 66.4 µM (inactive) and the GI50 [36] was 3.62 µM (inactive). For the same molecule, the GI50 [37] was 26.5 µM (inactive), the GI50 [38] was 32.4 µM (inactive) and the GI50 [39] was > 100 µM (inactive). The GI50 [40] was 19.5 µM (inactive), the GI50 [41] was 34.9 µM (inactive) and the GI50 [42] was 50.6 µM (inactive). The GI50 [43] was 22.4 µM (inactive), the GI50 [44] was 19.2 µM (inactive) and the GI50 [45] was 25.2 µM (inactive). For the same molecule, the GI50 [46] was 26 µM (inactive), the GI50 [47] was 43.2 µM (inactive) and the GI50 [48] was 37 µM (inactive). For the same molecule, the GI50 [49] was 20.9 µM (inactive), the GI50 [50] was 18.2 µM (inactive) and the GI50 [51] was 28.5 µM (inactive). For the same molecule, the GI50 [52] was 37.5 µM (inactive), the GI50 [53] was 39.8 µM (inactive) and the GI50 [54] was 77.6 µM. The GI50 [55] was 18.4 µM (inactive) and the GI50 [56] was 32 µM (inactive).
With `Nc1ncc(Sc2ccccc2C(=O)O)s1` the GI50 [1] was > 100 µM (inactive), the GI50 [2] was > 100 µM (inactive) and the GI50 [3] was > 100 µM (inactive). The GI50 [4] was > 100 µM (inactive), the GI50 [5] was > 100 µM (inactive) and the GI50 [6] was > 100 µM (inactive). The GI50 [7] was > 100 µM (inactive), the GI50 [8] was > 100 µM (inactive) and the GI50 [9] was > 100 µM (inactive). For the same molecule, the GI50 [10] was > 100 µM (inactive), the GI50 [57] was > 100 µM (inactive) and the GI50 [12] was > 100 µM (inactive). For the same molecule, the GI50 [13] was > 100 µM (inactive), the GI50 [14] was > 100 µM (inactive) and the GI50 [15] was > 100 µM (inactive). The GI50 [16] was > 100 µM (inactive), the GI50 [17] was > 100 µM (inactive) and the GI50 [19] was > 100 µM (inactive). The GI50 [20] was > 100 µM (inactive), the GI50 [21] was > 100 µM (inactive) and the GI50 [22] was > 100 µM (inactive). The GI50 [23] was > 100 µM (inactive), the GI50 [24] was > 100 µM (inactive) and the GI50 [25] was > 100 µM (inactive). The GI50 [26] was > 100 µM (inactive), the GI50 [27] was > 100 µM (inactive) and the GI50 [28] was > 100 µM (inactive). For the same molecule, the GI50 [29] was > 100 µM (inactive), the GI50 [30] was > 100 µM (inactive) and the GI50 [31] was > 100 µM (inactive). The GI50 [33] was > 100 µM (inactive), the GI50 [34] was > 100 µM (inactive) and the GI50 [35] was > 100 µM (inactive). For the same molecule, the GI50 [36] was > 100 µM (inactive), the GI50 [37] was > 100 µM (inactive) and the GI50 [38] was > 100 µM (inactive). The GI50 [39] was > 100 µM (inactive), the GI50 [40] was > 100 µM (inactive) and the GI50 [42] was > 100 µM (inactive). For the same molecule, the GI50 [43] was > 100 µM (inactive), the GI50 [58] was > 100 µM (inactive) and the GI50 [44] was > 100 µM (inactive). The GI50 [45] was > 100 µM (inactive), the GI50 [46] was > 100 µM (inactive) and the GI50 [47] was > 100 µM (inactive). The GI50 [48] was > 100 µM (inactive), the GI50 [49] was > 100 µM (inactive) and the GI50 [50] was > 100 µM (inactive). The GI50 [59] was > 100 µM (inactive), the GI50 [51] was > 100 µM (inactive) and the GI50 [52] was > 100 µM (inactive). For the same molecule, the GI50 [53] was > 100 µM (inactive), the GI50 [54] was over 100 µM and the GI50 [56] was > 100 µM (inactive).
For `O=C1Cc2cn[nH]c2-c2ccccc2N1`, the GI50 [1] was 30.2 µM (inactive), the GI50 [2] was > 94.4 µM (inactive) and the GI50 [3] was 36 µM (inactive). The GI50 [4] was 20.1 µM (inactive), the GI50 [5] was 29.9 µM (inactive) and the GI50 [6] was 41.8 µM (inactive). For the same molecule, the GI50 [7] was > 45.5 µM (inactive), the GI50 [8] was 34.7 µM (inactive) and the GI50 [9] was 61 µM (inactive). For the same molecule, the GI50 [10] was 41.1 µM (inactive), the GI50 [11] was 26.2 µM (inactive) and the GI50 [57] was 26.9 µM (inactive). For the same molecule, the GI50 [12] was 30.3 µM (inactive), the GI50 [13] was 26.5 µM (inactive) and the GI50 [14] was 24.2 µM (inactive). For the same molecule, the GI50 [15] was 23.5 µM (inactive), the GI50 [16] was 23.6 µM (inactive) and the GI50 [17] was 35 µM (inactive). The GI50 [18] was > 46.7 µM (inactive), the GI50 [19] was 32.7 µM (inactive) and the GI50 [20] was 22.9 µM (inactive). For the same molecule, the GI50 [21] was 39 µM (inactive), the GI50 [22] was 17.2 µM (inactive) and the GI50 [23] was 38.4 µM (inactive). For the same molecule, the GI50 [24] was 22.3 µM (inactive), the GI50 [25] was 28.2 µM (inactive) and the GI50 [26] was 39.2 µM (inactive). For the same molecule, the GI50 [27] was 63.1 µM (inactive), the GI50 [28] was 16.1 µM (inactive) and the GI50 [29] was 17.1 µM (inactive). The GI50 [30] was > 68.2 µM (inactive), the GI50 [31] was 38 µM (inactive) and the GI50 [32] was 21.4 µM (inactive). The GI50 [33] was 28.8 µM (inactive), the GI50 [34] was 16.3 µM (inactive) and the GI50 [35] was 40.7 µM (inactive). For the same molecule, the GI50 [36] was 22.5 µM (inactive), the GI50 [37] was 20.7 µM (inactive) and the GI50 [38] was 35.2 µM (inactive). The GI50 [39] was > 75.9 µM (inactive), the GI50 [40] was 79.3 µM (inactive) and the GI50 [41] was 30.3 µM (inactive). The GI50 [42] was 34.9 µM (inactive), the GI50 [43] was 33.2 µM (inactive) and the GI50 [58] was 29 µM (inactive). For the same molecule, the GI50 [44] was 38.8 µM (inactive), the GI50 [45] was 32.1 µM (inactive) and the GI50 [46] was 21.9 µM (inactive). The GI50 [47] was 41.2 µM (inactive), the GI50 [48] was 22.5 µM (inactive) and the GI50 [49] was 26.4 µM (inactive). For the same molecule, the GI50 [50] was 37.9 µM (inactive), the GI50 [51] was 29.8 µM (inactive) and the GI50 [52] was 21.7 µM (inactive). For the same molecule, the GI50 [53] was > 44.4 µM (inactive), the GI50 [54] was 23.8 µM and the GI50 [55] was > 85.7 µM (inactive). For the same molecule, the GI50 [56] was 8.45 µM (inactive).
